Measurements reported in US20260021098A1, “METHODS OF TREATMENT OF JAK INHIBITION RESPONSIVE CONDITIONS WITH DEUTERATED JAK INHIBITORS” (Sun Pharmaceutical Industries, Inc., priority 2024, published 2026).

Assay: Drug-drug interaction study of Compound (I) and itraconazole, plasma concentration data
Type: in vivo, human
Settings: 12 mg Compound (I) with 200 mg itraconazole (Test), healthy volunteers

t1/2: 4.62 h
Compound: [2H]C1([2H])C([C@@H](CC#N)n2cc(-c3ncnc4[nH]ccc34)cn2)C([2H])([2H])C([2H])([2H])C1([2H])[2H] [Compound (I), (R)-3-(4-(7H-pyrrolo[2,3-d]pyrimidin-4-yl)-1H-pyrazol-1-yl)-3-(cyclopentyl-2,2,3,3,4,4,5,5-d8) propanenitrile]
